From US6929949B1, “Corona ion generating method and apparatus for the manipulation of molecules and biological cells” (University of South Florida, priority 2002, dated 2005)

Tested on: human A204 sarcoma cells
Experiment: Corona charge facilitated uptake of calcein by cells in culture (fluorescence microscopy)
Type: cell-based
Conditions: for % FLOURESCENT (percentage of fluorescing cells): 10 μM calcein in PBS, visually estimated
Procedure: Referring initially to FIG. 2, the present invention has been used experimentally to facilitate the uptake of calcein by cells in culture. The experimental apparatus is shown as in FIG. 2. 35 mm diameter cell culture plates 4 were seeded with 0.5×10^6 human A204 sarcoma cells 5 approximately 24 hours prior to the experiment to allow time for the cells to attach to the growth surface on the bottom of each dish. Immediately prior to treating the cells with corona charge in air, the growth media was aspirated. Then 500 ÂμI of 10 ÂμM Calcein 6, in phosphate buffered saline 7; was introduced onto the bottom of the plate. Calcein molecules in the phosphate buffered saline are shown in the figure as a negatively charged species. The liquid was distributed over the entire growth surface. […] Corona charge 10 was deposited onto the samples in the presence of calcein for a range of times from 0 minutes to 10 minutes. The solution of calcein was allowed to remain in contact with each sample for a period of 10 minutes after corona exposure. Additionally, a positive or negative bias potential 11 can be applied to the sample. Each plate was then washed with two separate 1 ml aliquots of phosphate buffered saline to remove extracellular calcein. Finally, a 1 ml aliquot of phosphate buffered saline was pipetted into each sample plate. Samples were viewed with florescent microscopy to visually confirm the entry of the nonpermanent calcein resulting from corona charge exposure. The percentage of fluorescing cells was visually estimated based upon the total number of cells in the plates. The table shown below indicates the resulting percentages of fluorescing cells in each sample.

O=C(O)CN(CC(=O)O)Cc1cc2c(cc1O)Oc1cc(O)c(CN(CC(=O)O)CC(=O)O)cc1C21OC(=O)c2ccccc21 [calcein, Calcein]
entry of calcein into the cells (absence of corona exposure (sample 6)): did not result in the entry of calcein into the cells
% FLOURESCENT (percentage of fluorescing cells) (corona exposure time 0 minutes (no corona exposure)): 0%
% FLOURESCENT (percentage of fluorescing cells) (corona exposure time 2 minutes, positive corona, wire at 6000 V, 2.5 cm away): Less than 1%
% FLOURESCENT (percentage of fluorescing cells) (corona exposure time 4 minutes, positive corona, wire at 6000 V, 2.5 cm away): 15%
% FLOURESCENT (percentage of fluorescing cells) (corona exposure time 6 minutes, positive corona, wire at 6000 V, 2.5 cm away): 20%
% FLOURESCENT (percentage of fluorescing cells) (corona exposure time 8 minutes, positive corona, wire at 6000 V, 2.5 cm away): 30%
% FLOURESCENT (percentage of fluorescing cells) (corona exposure time 10 minutes, positive corona, wire at 6000 V, 2.5 cm away): 80%
